Test results from patent publication US20190192699A1, “NUCLEAR IMAGING AND RADIOTHERAPEUTICS AGENTS TARGETING CARBONIC ANHYDRASE IX AND USES THEREOF” (THE JOHNS HOPKINS UNIVERSITY, priority 2016, published 2019).
Several values for one entry are separate records, joined by “and”; a condition that tells them apart may be missing. Identical values can stand only once. Entries after “also recorded” stand apart in the source; their conditions may differ.

Key:
SK-RC-52 xenografts = assay: Biodistribution of [111In]XYIMSR-01 and [177Lu]XYIMSR-01; assay type: in vivo, mice
Experimental: (§1) Cell Lines and Mouse Models. Animal experiments were performed in accordance with protocols approved by the Johns Hopkins Animal Care and Use Committee (ACUC). Six-week-old female NOD/SCID mice were purchased from the Animal Resource Core of the Sidney Kimmel Comprehensive Cancer Center of Johns Hopkins and were subcutaneously injected in the lower left flank or upper right flank with 1×10^6 SK-RC-52 cells in RPMI 1640 GlutaMAX™ media (Life Technologies, Frederick, Md.) supplemented with 1% fetal bovine serum (FBS). Mice were monitored for tumor size and used for SPECT/CT imaging when the size of the tumor reached 100 mm^3.
Biodistribution of [^111In]XYIMSR-01 and [^177Lu]XYIMSR-01. Mice bearing SK-RC-52 xenografts at lower left flank were injected intravenously with 740 kBq (20 μCi) of [^111In]XYIMSR-01, or [^177Lu]XYIMSR-01 in 200 μL of PBS. For competitive blocking, same tumor bearing mice were injected with 740 kBq (20 μCi) of [^111In]XYIMSR-01 and 200 nmole of 1 in 200 μL of PBS. At 1 h, 4 h, 8 h, 24 h and 48 h post-injection, mice were sacrificed by cervical dislocation and the blood was immediately collected by cardiac puncture. Heart, lungs, pancreas, spleen, fat, brain, muscle, small intestines, liver, stomach, kidney, urinary bladder, and tumor were collected. Each organ was weighed and the tissue radioactivity was measured with an automated gamma counter (1282 Compugamma CS, Pharmacia/LKBNuclear, Inc., Mt. Waverly, Vic. Australia). The percentage of injected dose per gram of tissue (% ID/g) was calculated by comparison with samples of a standard dilution of the initial dose. All measurements were corrected for radioactive decay.
Data were expressed as mean±standard deviation (SD). Prism software (GraphPAD, San Diego, Calif.) was used to determine statistical significance. Statistical significance was calculated using a paired t test. P-values […] were considered significant.

[1] = system: CAIX-expressing SK-RC-52 tumors; assay: SPECT/CT imaging of [111In]XYIMSR-01; assay type: in vivo, mice; conditions: 14.8 MBq (400 μCi) via tail vein
Experimental: as §1
SPECT/CT imaging of [^111In]XYIMSR-01. Mice harboring subcutaneous SK-RC-52 tumors with the lower left flank were injected with 14.8 MBq (400 μCi) of [^111In]XYIMSR-01 in 250 μL of PBS (pH=7.0) intravenously (tail vein). Anesthesia was then induced with 3% isofluorane and maintained at 2% isoflurane. Physiologic temperature was maintained with an external light source while the mouse was on the gantry. Imaging employed a CT-equipped Gamma Medica-Ideas SPECT scanner (Northridge, Calif.). SPECT data were acquired in 64 projections at 65 s per projection using medium energy pinhole collimators. A CT scan was performed in 512 projections at the end of each SPECT scan for anatomic co-registration. […]

[2] = 24 hr + Block (200 nmole of 1 co-injected)
[3] = 48 hr + Block (200 nmole of 1 co-injected)

CC(CCC(=O)N[C@@H](CC(=O)N[C@@H](CC(=O)N[C@@H](CCCCn1cc(CCCC(=O)Nc2nnc(S(N)(=O)=O)s2)nn1)C(=O)NCCOCCOCCNC(=O)CN1CCN(CC(=O)[O-])CCN(CC(=O)[O-])CCN(CC(=O)[O-])CC1)C(=O)O)C(=O)O)(c1ccc(O)cc1)c1ccc(O)cc1.[111In+3] [[^111In]XYIMSR-01]
Biodistribution: Lung (SK-RC-52 xenografts; [2]): 0.12 ± 0.02 % ID/g
Biodistribution: Muscle (SK-RC-52 xenografts; [2]): 0.02 ± 0.00 % ID/g
Biodistribution: Pancreas (SK-RC-52 xenografts; [2]): 0.03 ± 0.00 % ID/g
Biodistribution: Small intestine (SK-RC-52 xenografts; [2]): 0.08 ± 0.01 % ID/g
Biodistribution: Spleen (SK-RC-52 xenografts; [2]): 0.08 ± 0.01 % ID/g
Biodistribution: Stomach (SK-RC-52 xenografts; [2]): 0.14 ± 0.02 % ID/g
Biodistribution: Tumor (SK-RC-52 xenografts; [2]): 1.41 ± 0.20 % ID/g
Tumor/Blood ratio (SK-RC-52 xenografts; [2]): 45.2 ± 9.7
Tumor/Kidney ratio (SK-RC-52 xenografts; [2]): 2.1 ± 0.3
Tumor/Muscle ratio (SK-RC-52 xenografts; [2]): 91.4 ± 11.1
Biodistribution: Bladder (SK-RC-52 xenografts; 24 hr post-injection): 0.74 ± 0.17 % ID/g
Biodistribution: Blood (SK-RC-52 xenografts; 24 hr post-injection): 0.15 ± 0.02 % ID/g
Biodistribution: Brain (SK-RC-52 xenografts; 24 hr post-injection): 0.71 ± 0.85 % ID/g
Biodistribution: Fat (SK-RC-52 xenografts; 24 hr post-injection): 0.28 ± 0.19 % ID/g
Biodistribution: Heart (SK-RC-52 xenografts; 24 hr post-injection): 1.16 ± 0.20 % ID/g
Biodistribution: Kidney (SK-RC-52 xenografts; 24 hr post-injection): 15.29 ± 1.69 % ID/g
Biodistribution: Liver (SK-RC-52 xenografts; 24 hr post-injection): 3.02 ± 3.46 % ID/g
Biodistribution: Lung (SK-RC-52 xenografts; 24 hr post-injection): 11.01 ± 3.71 % ID/g
Biodistribution: Muscle (SK-RC-52 xenografts; 24 hr post-injection): 0.35 ± 0.12 % ID/g
Biodistribution: Pancreas (SK-RC-52 xenografts; 24 hr post-injection): 0.69 ± 0.18 % ID/g
Biodistribution: Small intestine (SK-RC-52 xenografts; 24 hr post-injection): 2.11 ± 0.33 % ID/g
Biodistribution: Spleen (SK-RC-52 xenografts; 24 hr post-injection): 0.69 ± 0.39 % ID/g
Biodistribution: Stomach (SK-RC-52 xenografts; 24 hr post-injection): 3.31 ± 1.25 % ID/g
Biodistribution: Tumor (SK-RC-52 xenografts; 24 hr post-injection): 25.6 % ID/g and 25.62 ± 17.67 % ID/g
Tumor/Blood ratio (SK-RC-52 xenografts; 24 hr post-injection): 178.1±145.4 and 178
Tumor/Kidney ratio (SK-RC-52 xenografts; 24 hr post-injection): 1.7±1.2 and 1.7
Tumor/Muscle ratio (SK-RC-52 xenografts; 24 hr post-injection): 68.4±29.0 and 68
Biodistribution: Bladder (SK-RC-52 xenografts; [3]): 0.14 ± 0.03 % ID/g
Biodistribution: Blood (SK-RC-52 xenografts; [3]): 0.03 ± 0.00 % ID/g
Biodistribution: Brain (SK-RC-52 xenografts; [3]): 0.03 ± 0.01 % ID/g
Biodistribution: Fat (SK-RC-52 xenografts; [3]): 0.03 ± 0.01 % ID/g
Biodistribution: Heart (SK-RC-52 xenografts; [3]): 0.04 ± 0.01 % ID/g
Biodistribution: Kidney (SK-RC-52 xenografts; [3]): 0.45 ± 0.09 % ID/g
Biodistribution: Liver (SK-RC-52 xenografts; [3]): 0.13 ± 0.04 % ID/g
Biodistribution: Lung (SK-RC-52 xenografts; [3]): 0.09 ± 0.02 % ID/g
Biodistribution: Muscle (SK-RC-52 xenografts; [3]): 0.02 ± 0.00 % ID/g
Biodistribution: Pancreas (SK-RC-52 xenografts; [3]): 0.03 ± 0.01 % ID/g
Biodistribution: Small intestine (SK-RC-52 xenografts; [3]): 0.08 ± 0.02 % ID/g
Biodistribution: Spleen (SK-RC-52 xenografts; [3]): 0.11 ± 0.03 % ID/g
Biodistribution: Stomach (SK-RC-52 xenografts; [3]): 0.14 ± 0.03 % ID/g
Biodistribution: Tumor (SK-RC-52 xenografts; [3]): 1.22 ± 0.54 % ID/g
Tumor/Blood ratio (SK-RC-52 xenografts; [3]): 45.4 ± 13.8
Tumor/Kidney ratio (SK-RC-52 xenografts; [3]): 2.7 ± 0.8
Tumor/Muscle ratio (SK-RC-52 xenografts; [3]): 75.1 ± 17.7
Biodistribution: Bladder (SK-RC-52 xenografts; 48 hr post-injection): 0.38 ± 0.18 % ID/g
Biodistribution: Blood (SK-RC-52 xenografts; 48 hr post-injection): 0.06 ± 0.02 % ID/g
Biodistribution: Brain (SK-RC-52 xenografts; 48 hr post-injection): 0.41 ± 0.05 % ID/g
Biodistribution: Fat (SK-RC-52 xenografts; 48 hr post-injection): 0.25 ± 0.08 % ID/g
Biodistribution: Heart (SK-RC-52 xenografts; 48 hr post-injection): 0.84 ± 0.16 % ID/g
Biodistribution: Kidney (SK-RC-52 xenografts; 48 hr post-injection): 8.78 ± 1.89 % ID/g
Biodistribution: Liver (SK-RC-52 xenografts; 48 hr post-injection): 1.65 ± 0.26 % ID/g
Biodistribution: Lung (SK-RC-52 xenografts; 48 hr post-injection): 9.22 ± 1.25 % ID/g
Biodistribution: Muscle (SK-RC-52 xenografts; 48 hr post-injection): 0.39 ± 0.28 % ID/g
Biodistribution: Pancreas (SK-RC-52 xenografts; 48 hr post-injection): 0.59 ± 0.18 % ID/g
Biodistribution: Small intestine (SK-RC-52 xenografts; 48 hr post-injection): 1.22 ± 0.44 % ID/g
Biodistribution: Spleen (SK-RC-52 xenografts; 48 hr post-injection): 0.67 ± 0.13 % ID/g
Biodistribution: Stomach (SK-RC-52 xenografts; 48 hr post-injection): 1.82 ± 0.43 % ID/g
Biodistribution: Tumor (SK-RC-52 xenografts; 48 hr post-injection): 13.9 % ID/g and 13.92 ± 6.67 % ID/g
Tumor/Blood ratio (SK-RC-52 xenografts; 48 hr post-injection): 212.0 ± 41.4
Tumor/Kidney ratio (SK-RC-52 xenografts; 48 hr post-injection): 1.5 ± 0.5
Tumor/Muscle ratio (SK-RC-52 xenografts; 48 hr post-injection): 52.0 ± 21.0
SPECT/CT tumor imaging finding [1]: radiotracer uptake in tumor as early as 1 h post-injection; also recorded: radiotracer uptake was observed within the tumors at 1 h post-injection; also recorded: enabled specific imaging of CAIX-expressing SK-RC-52 tumors
